ChEMBL document CHEMBL1629693, “Intracellular concentrations of posaconazole in different compartments of peripheral blood” (Antimicrob Agents Chemother, 2010)

Columns and labels:
[1] = Drug uptake in human PMNC assessed as increase in intracellular compound concentration by radiometric assay relative to control; assay type: ADME, cell-based
[2] = Ratio of intracellular to extracellular drug uptake in alveolar macrophages of New Zealand white rabbit infected with Mycobacterium bovis at 1 ug/ml in presence of 100% serum; assay type: ADME, cell-based, Oryctolagus cuniculus; conditions: macrophage
[3] = Ratio of cellular uptake in alveolar macrophages to plasma of healthy human
[4] = Ratio of intracellular to extracellular drug uptake in RBC of New Zealand white rabbit infected with Mycobacterium bovis at 1 ug/ml; assay type: ADME, cell-based, Oryctolagus cuniculus; conditions: erythrocyte
[5] = Ratio of intracellular to extracellular drug uptake in alveolar macrophages of New Zealand white rabbit infected with Mycobacterium bovis at 1 ug/ml; assay type: ADME, cell-based, Oryctolagus cuniculus; conditions: macrophage
[6] = Ratio of intracellular to extracellular drug uptake in alveolar macrophages of New Zealand white rabbit infected with Mycobacterium bovis at 1 ug/ml in presence of 5% serum; assay type: ADME, cell-based, Oryctolagus cuniculus; conditions: macrophage
[7] = Ratio of cellular uptake in alveolar macrophages to plasma of healthy human at 14 doses of […], twice daily; assay type: ADME, organism-based
[8] = Ratio of intracellular to extracellular cellular uptake in RBC of patient with hematological malignancies at 200 mg administered 3 to 4 times a day measured by liquid chromatography-tandem mass spectroscopy; conditions: human, in vivo
[9] = Ratio of intracellular to extracellular cellular uptake in PMNC of patient with hematological malignancies at 200 mg administered 3 to 4 times a day measured by liquid chromatography-tandem mass spectroscopy; conditions: human, in vivo
PBMC [10] = experiment: Cellular uptake in PBMC of patient with hematological malignancies at 200 mg administered 3 to 4 times a day measured by liquid chromatography-tandem mass spectroscopy; conditions: human, in vivo
[11] = Cellular uptake in RBC of patient with hematological malignancies at 200 mg administered 3 to 4 times a day measured by liquid chromatography-tandem mass spectroscopy; conditions: human, in vivo
PBMC [12] = experiment: Ratio of intracellular to extracellular cellular uptake in PBMC of patient with hematological malignancies at 200 mg administered 3 to 4 times a day measured by liquid chromatography-tandem mass spectroscopy; conditions: human, in vivo
Plasma = experiment: Drug uptake in plasma of patient with hematological malignancies at 200 mg administered 3 to 4 times a day measured by liquid chromatography-tandem mass spectroscopy; conditions: human, in vivo
[13] = Cellular uptake in PMNC of patient with hematological malignancies at 200 mg administered 3 to 4 times a day measured by liquid chromatography-tandem mass spectroscopy; conditions: human, in vivo

**Q.** With OC(Cn1cncn1)(Cn1cncn1)c1ccc(F)cc1F [FLUCONAZOLE] as the molecule, how does the “fold change (FC)” value [1] read?
**A.** 2.2

**Q.** Which results are given for CCC(C)n1ncn(-c2ccc(N3CCN(c4ccc(OCC5COC(Cn6cncn6)(c6ccc(Cl)cc6Cl)O5)cc4)CC3)cc2)c1=O (stereo not given) [ITRACONAZOLE]?
**A.** Ratio [2]: 3; Kp [3]: 27.3; Ratio [4]: 90.4; Ratio [5]: 87.9; Ratio [6]: 18; Kp [7]: 44.3

**Q.** For CC[C@@H]([C@H](C)O)n1ncn(-c2ccc(N3CCN(c4ccc(OC[C@@H]5CO[C@@](Cn6cncn6)(c6ccc(F)cc6F)C5)cc4)CC3)cc2)c1=O [POSACONAZOLE], which Ratio [8] is on record?
**A.** 0.09

**Q.** And the Ratio [9]?
**A.** 7.66

**Q.** And the Drug uptake (PBMC [10])?
**A.** 12764 ng/mL

**Q.** What about the Drug uptake [11] of the same molecule?
**A.** 50.8 ng/mL

**Q.** And the Ratio (PBMC [12])?
**A.** 22.5

**Q.** And the Drug uptake (Plasma)?
**A.** 603.2 ng/mL

**Q.** What about the Drug uptake [13] of the same molecule?
**A.** 4031 ng/mL

**Q.** For C[C@@H](c1ncncc1F)[C@](O)(Cn1cncn1)c1ccc(F)cc1F [VORICONAZOLE], which “fold change (FC)” value [1] is on record?
**A.** 8.5
